Experimental findings from US11498921B1, “Pyrimidine or pyridine compounds, preparation method therefor and pharmaceutical uses thereof” (INVENTISBIO CO., LTD., priority 2014, dated 2022) are described below.

Holding throughout (assay type): cell-based
Test [1] has as its system NCI-H1975 cells (T790M and L858R EGFR mutations). Nature of the test: Cell growth inhibition (Cell Titer-Glo), NCI-H1975. The conditions noted are these: Homo sapiens, 72 hours drug treatment, 0.03 nM to 100 nM. As to the method:
(§1) Experiment of Cell Growth Inhibition
(§2) The LoVo cell line is a wild-type EGFR human colon adenocarcinoma cell, and is grown in F-12K medium (GIBCO) containing 10% FBS. NCI-H2073 cell line is a wild-type EGFR human non-small cell lung cancer cell and grown in ACL-4 medium containing 10% FBS. The growth rate of NCI-H1975, LoVo and NCI-H2073 cells was detected by Cell Titer-Glo luminescence activity assay (Promega #G7572).
(§3) Briefly, trypsin was used for digesting cells in the logarithmic growth phase. 96-well plates were seeded with 50,000 Lovo or NCI-H2073 cells, 2500-3000 NCI-H1975 cells per well and provided with blank control wells containing only nutrient solution without inoculated cell, and the plates were incubated in a humidified incubator with 5% CO2 at 37° C. […] The concentration of test drug in NCI-H1975 cells was from 0.03 nM to 100 nM, and that in LoVo and NCI-H2073 cells was from 3 nM to 10 μM. The cell culture medium containing the different compounds was then added to a 96-well cell plate in which one cell control well comprising cell culture medium only containing DMSO was provided. After a drug treatment for 72 hours, the cell plates were removed from the incubator and allowed to stand at room temperature for 30 minutes. Next, Cell Titer-Glo reagent was added to the wells and the 96-well cell plate was shaken at room temperature for 10 minutes to induce cell lysis. The 96-well cell plate was placed on the bench for 2 minutes to stabilize the luminescence signal. Finally, the 96-well cell plate was placed in an EnVision Multi-labeled Microplate Reader (PerkinElmer), and the signal was read with an integral time of 0.5 seconds.
(§4) Formula: Percentage of cell growth inhibition %=(maximum signal−compound signal)/(maximum signal−minimum signal)*100%
(§5) The maximal signal was obtained from the cell control well which were treated with the DMSO solution having no any compound;
(§6) The compound signal was obtained from the drug-treated cell wells to which the compound was added;
(§7) The minimum signal was obtained from a blank control well to which no cells and only nutrient solution was added.
For orientation: Cellular ATP, detected with luciferase, serves as a proxy for viable cell number.

In test [2] the test system is LoVo cells (wild-type EGFR human colon adenocarcinoma). Nature of the test: Cell growth inhibition (Cell Titer-Glo), LoVo. The settings on record: 72 hours drug treatment, 3 nM to 10 μM. As to the method:
as §1, §2, §3, §4, §5, §6, §7

For test [3], the system named is NCI-H2073 cells (wild-type EGFR human non-small cell lung cancer). Nature of the test: Cell growth inhibition (Cell Titer-Glo), NCI-H2073. The conditions noted are these: 72 hours drug treatment, 3 nM to 10 μM. The method, then: as §1
as §2, with “The compounds that were preferentially targeted for EGFR targeting certain mutations and relatively weak in wild-type EGFR were identified by determining the growth of cells. The NCI-H1975 cell line is a human non-small cell lung cancer cell containing T790M and L858R EGFR mutations, and the cell is grown in RPMI-1640 medium (GIBCO) containing 10% fetal bovine serum (FBS). The LoVo” for “The LoVo”
Briefly, trypsin was used for digesting cells in the logarithmic growth phase. 96-well plates were seeded with 50,000 Lovo or NCI-H2073 cells, 2500-3000 NCI-H1975 cells per well and provided with blank control wells containing only nutrient solution without inoculated cell, and the plates were incubated in a humidified incubator with 5% CO2 at 37° C. After 24 hours, the DMSO solution of the different compounds was diluted with a cell culture medium at 3.16 times per time to eight different concentrations from high to low levels. The concentration of test drug in NCI-H1975 cells was from 0.03 nM to 100 nM, and that in LoVo and NCI-H2073 cells was from 3 nM to 10 μM. The cell culture medium containing the different compounds was then added to a 96-well cell plate in which one cell control well comprising cell culture medium only containing DMSO was provided. After a drug treatment for 72 hours, the cell plates were removed from the incubator and allowed to stand at room temperature for 30 minutes. Next, Cell Titer-Glo reagent was added to the wells and the 96-well cell plate was shaken at room temperature for 10 minutes to induce cell lysis. The 96-well cell plate was placed on the bench for 2 minutes to stabilize the luminescence signal. Finally, the 96-well cell plate was placed in an EnVision Multi-labeled Microplate Reader (PerkinElmer), and the signal was read with an integral time of 0.5 seconds.
as §4, §5, §6, §7

Structures can show the parent of a compound that is named as a salt. Where only a bound is given, the exact number is not on record here.

For the compound `C=CC(=O)Nc1cc(Nc2nccc(-c3cn(C)c4ccccc34)n2)c(OC)cc1N(C)CCOC` [6. (HCl)n], the results for the half-maximal inhibitory concentration (IC50) in test [1] and in test [2] were > 0.1 µM and 4.98 µM, respectively.

As to `C=CC(=O)Nc1cc(Nc2nccc(-c3cn(C)c4ccccc34)n2)c(OC)cc1N(C)CCS(C)(=O)=O` [10. (MsOH)3], the IC50 in test [1] was > 0.1 µM; in test [2], 3.02 µM.

Regarding `C=CC(=O)Nc1cc(Nc2nccc(-c3cn(C)c4ccccc34)n2)c(OC)cc1N(C)CCN1CCC1` [11. (MsOH)2], the IC50 is 0.0354 µM in test [1] and 1.27 µM in test [2].

Regarding `C=CC(=O)Nc1cc(Nc2nccc(-c3cn(C)c4ccccc34)n2)c(OC)cc1N(C)CCN1CCCC1` [12. (MsOH)2], the IC50 in test [1] was determined as 0.0352 µM; in test [2], 1.72 µM.

For `C=CC(=O)Nc1cc(Nc2nccc(-c3cn(C)c4ccccc34)n2)c(OC)cc1N1CCC(N(C)C)CC1` [13. (MsOH)2], the IC50 in test [1] is > 0.1 µM; in test [2] it was 0.444 µM.

For the compound `C=CC(=O)Nc1cc(Nc2nccc(-c3cn(C)c4ccccc34)n2)c(OC)cc1N1CCC(N2CCC2)CC1` [14. (MsOH)2], the half-inhibitory concentration (IC50) was > 0.1 µM in test [1] and 0.481 µM in test [2].

On to `C=CC(=O)Nc1cc(Nc2nccc(-c3cn(C)c4ccccc34)n2)c(OC)cc1N1CCC(N2CCCC2)CC1` [15. (MsOH)2], for which the 50% inhibitory concentration (IC50) in test [1] is > 0.1 µM; in test [2], 0.333 µM.

As to `C=CC(=O)Nc1cc(Nc2nccc(-c3cn(C)c4ccccc34)n2)c(OC)cc1N1CCC(OC)C1` (stereo not drawn) [17. (MsOH)2], the concentration for half-maximal inhibition (IC50) in test [1] was > 0.1 µM; in test [2], > 10 µM.

`C=CC(=O)Nc1cc(Nc2nccc(-c3cn(C)c4ccccc34)n2)c(OC)cc1N1CCC(N2CCC2)C1` (stereo not drawn) [18. (MsOH)3]: the IC50 in test [1] amounted to 0.0436 µM; in test [2] it was 0.52 µM.

As to `C=CC(=O)Nc1cc(Nc2nccc(-c3cn(C)c4ccccc34)n2)c(OC)cc1N1CCC(N2CCCC2)C1` (stereo not drawn) [19. MsOH], the values for the IC50 in test [1] and in test [2] were 0.0485 µM and 0.955 µM, respectively.

Turning to `C=CC(=O)Nc1cc(Nc2nccc(-c3cn(C)c4ccccc34)n2)c(OC)cc1N1CCC(N2CCN(C)CC2)C1` (stereo not drawn) [20. (MsOH)4], the figures for the IC50 in test [1] and in test [2] were > 0.1 µM and 0.954 µM, respectively.

`C=CC(=O)Nc1cc(Nc2nccc(-c3cn(C)c4ccccc34)n2)c(OC)cc1N1CC(OC)C1` [21. (MsOH)2]: the half-maximal inhibitory concentration (IC50) in test [1] is > 0.1 µM; in test [2] it was > 10 µM.

`C=CC(=O)Nc1cc(Nc2nccc(-c3cn(C)c4ccccc34)n2)c(OC)cc1N1CC(N2CCN(C)CC2)C1` [24. (MsOH)3]: the 50% inhibitory concentration (IC50) is > 0.1 µM in test [1] and 2.58 µM in test [2].

On to `C=CC(=O)Nc1cc(Nc2nccc(-c3cn(C)c4ccccc34)n2)c(OC)cc1N1CC(N2CCOCC2)C1` [25. (MsOH)2], for which the IC50 in test [1] is > 0.1 µM; in test [2], 5.25 µM.

On to `C=CC(=O)Nc1cc(Nc2nccc(-c3cn(C)c4ccccc34)n2)c(OC)cc1N1CCC(N2CCOCC2)C1` (stereo not drawn) [26. (MsOH)2], for which the figures for the IC50 in test [1] and in test [2] were > 0.1 µM and 5.13 µM, respectively.

For the compound `C=CC(=O)Nc1cc(Nc2nccc(-c3cn(C)c4ccccc34)n2)c(OC)cc1N1CCC(N2CCOCC2)CC1` [27. (MsOH)3], the 50% inhibitory concentration (IC50) turned out to be 0.084 µM in test [1] and 1.81 µM in test [2].

As for `C=CC(=O)Nc1cc(Nc2nccc(-c3cn(C)c4ccccc34)n2)c(OC)cc1OCCN1CCOCC1` [30. (MsOH)2], the IC50 in test [1] was > 0.1 µM; in test [2] it was 2.55 µM.

On to `C=CC(=O)Nc1cc(Nc2nccc(-c3cn(C)c4ccccc34)n2)c(OC)cc1OCCN1CCN(C)CC1` [31. (MsOH)3], for which the half-inhibitory concentration (IC50) in test [1] was > 0.1 µM; in test [2], 0.846 µM.

Turning to `C=CC(=O)Nc1cc(Nc2nccc(-c3cn(C)c4ccccc34)n2)c(OC)cc1OCCOC` [32. (MsOH)], the figures for the IC50 in test [1] and in test [2] were > 0.1 µM and > 10 µM, respectively.

On to `C=CC(=O)Nc1cc(Nc2nccc(-c3cn(C)c4ccccc34)n2)c(OC)cc1N(CCOC)CCOC` [33. HCl], for which the IC50 in test [1] is > 0.1 µM; in test [2], 1.43 µM.

On to `C=CC(=O)Nc1cc(Nc2nccc(-c3cn(C)c4ccccc34)n2)c(OC)cc1N1CCCC(N(C)C)C1` (stereo not drawn) [34. (MsOH)3], for which the IC50 was 0.0399 µM in test [1] and 0.446 µM in test [2].

Regarding `C=CC(=O)Nc1cc(Nc2nccc(N3CCCc4ccccc43)n2)c(OC)cc1N(C)CCN(C)C` [35. (MsOH)3], the half-inhibitory concentration (IC50) amounted to 0.0484 µM in test [1] and 0.912 µM in test [2].

As to `C=CC(=O)Nc1cc(Nc2cc(-c3cn(C)c4ccccc34)ccn2)c(OC)cc1N(C)CCN(C)C` [43. (HCl)n], the IC50 in test [1] turned out to be 0.0181 µM; in test [2], 2.17 µM.

For the compound `C=CS(=O)(=O)Nc1cc(Nc2nccc(-c3cn(C)c4ccccc34)n2)c(OC)cc1N(C)CCN(C)C` [45. (HCl)n], the values for the IC50 in test [1] and in test [2] were > 0.1 µM and 1.09 µM, respectively.

Consider `C=CS(=O)(=O)Nc1cc(Nc2nccc(-c3cn(C)c4ccccc34)n2)c(OC)cc1N(C)CCN1CCCC1` [46. (MsOH)2], for which the IC50 in test [1] was determined as 0.155 µM; in test [2], 1.17 µM.

Consider `C=CC(=O)Nc1cc(Nc2nccc(-c3cn(C)c4ccccc34)n2)c(OC)cc1N(C)CCCN(C)C` [47. (MsOH)2], for which the figures for the IC50 in test [1] and in test [2] were 0.134 µM and 1.62 µM, respectively.

For the compound `C=CC(=O)Nc1cc(Nc2nccc(-c3cn(C)c4ccccc34)n2)c(OC)cc1N(C)CCN(C)CCOC` [54. (HCl)n], the concentration for half-maximal inhibition (IC50) in test [1] worked out at 0.0382 µM; in test [2], 0.738 µM.

For the compound `C=CC(=O)Nc1cc(Nc2nccc(-n3nc(C)c4ccccc43)n2)c(OC)cc1N(C)CCN(C)C` [55. (HCl)n], the concentration for half-maximal inhibition (IC50) in test [1] was > 0.1 µM; in test [2] it was 3.23 µM.

Consider `[2H]C([2H])([2H])N(CCN(C)c1cc(OC)c(Nc2nccc(N3CC(C)(C)c4ccccc43)n2)cc1NC(=O)C=C)C([2H])([2H])[2H]` [57. (HCl)n], for which the IC50 in test [3] is 0.28 µM; in test [1], 0.0082 µM.

In the case of `[2H]C([2H])([2H])N(CCN(C)c1cc(OC)c(Nc2nccc(-n3c(=O)n(C)c4ccccc43)n2)cc1NC(=O)C=C)C([2H])([2H])[2H]` [58. (HCl)n], the 50% inhibitory concentration (IC50) in test [3] was 0.116 µM; in test [1], 0.0016 µM.

With `[2H]C([2H])([2H])N(CCN(C)c1cc(OC)c(Nc2nccc(-n3c(=O)[nH]c4ccccc43)n2)cc1NC(=O)C=C)C([2H])([2H])[2H]` [61. (HCl)n], the IC50 in test [3] stood at 0.029 µM; in test [1] it was 0.0015 µM.

Regarding `[2H]C([2H])([2H])N(CCN(C)c1cc(OC)c(Nc2nccc(N3CCc4ccccc43)n2)cc1NC(=O)C=C)C([2H])([2H])[2H]` [62. (HCl)n], the IC50 amounted to 0.27 µM in test [3] and 0.0032 µM in test [1].

As for `[2H]C([2H])([2H])N(CCN(C)c1cc(OC)c(Nc2nccc(-n3cc(C)c4ccccc43)n2)cc1NC(=O)C=C)C([2H])([2H])[2H]` [63. (HCl)n], the 50% inhibitory concentration (IC50) in test [3] was 0.41 µM; in test [1], 0.0048 µM.

With `[2H]C([2H])([2H])N(CCN(C)c1cc(OC)c(Nc2nccc(-n3nnc4ccccc43)n2)cc1NC(=O)C=C)C([2H])([2H])[2H]` [64. (HCl)n], the half-inhibitory concentration (IC50) is 0.31 µM in test [3] and 0.006 µM in test [1].

As for `C=CC(=O)Nc1cc(Nc2nccc(-c3cn(C)c4ccccc34)n2)c(OC)cc1N1CC(N2CCCC2)C1` [Example 23], the IC50 in test [1] amounted to 0.0908 µM; in test [2], 2.28 µM.

Regarding `C=CC(=O)Nc1cc(Nc2nccc(-c3cn(C)c4ccccc34)n2)c(OC)cc1OC1CN(C)C1` [Example 28], the IC50 was > 0.1 µM in test [1] and 0.538 µM in test [2].

A word on the IC50: it is the concentration that gives 50% inhibition.
